Laboratory results published in US12115232B2, “Preparation for magnetic resonance diagnostics for oncological diseases, comprising deuterated 3-O-methylglucose, and diagnostic method using said preparation” (SOLVEX LIMITED LIABILITY COMPANY, priority 2017, dated 2024).

Tests used:
[1] = system: breast carcinoma 4T1
Method: In the examples below, the MRI scanner Bruker BioSpec BC70/30 USR with the constant field of 7.05 T, equipped with a surface transmitting-and-receiving coil with a diameter of 3 cm and a scan depth of ca. 1 cm was used.
To register deuterium image the FLASH (Fast low angle shot) pulse sequence was used.
For experiments with the broadband excitation the following settings were used: the excitation frequency was determined by ^2H NMR spectrum and was sfo1≈46.1745 MHz, a rectangular excitation pulse with a width of 1300 Hz and a power of 36 dB, the flip angle FA=30°, the repetition time TR=11.8 MS, echo time TE=4.4 msec, a scan area of 10 cm×10 cm, scan matrix, 50×50, slice thickness 3 cm, bandwidth of 12500 Hz, total scan time 10 minutes (1030 averages).
In this example, experiments were conducted on mice Balb/c inoculated with breast carcinoma 4T1 (injection of 5×10^5 cells/60 μl under the left front paw for 10 days before experiment) and in healthy Balb/c mice.
A solution of 20-72 mg of 3-O-CD3-glucose was administered to an animal weighing 20 g was injected intraperitoneally, intravenously or via gavage (intraperitoneal: 0.5 ml of a saline solution; intravenous: 0.2 ml of water; oral: 0.25 ml of a saline solution). After injection, the animal was kept in a separate cage with free access to food and water within specified time. For imaging the animal was immobilized with isoflurane. The surface transmitting-and-receiving coil was fixed on the body of the mouse from the dorsal side in the thoracic region.

[2] = system: tumor; test: Preliminary 2H MRI tumor visualization experiments with glucose derivatives; type: in vivo
Source text: The authors of this invention have studied various derivatives of glucose as a potential diagnostic agent. It was discovered that not all glucose derivatives can be used for the diagnostics of oncological diseases through ^2H MRI or ^2H NMR.

Row | Structure (SMILES) | accumulation in tumor by 2H MRI after intravenous injection ([1]; 20 mg intravenous, 50 minutes, mouse no. 3 (FIG. 9)) | location of agent by 2H MRI after oral administration, late ([1]; 70 mg oral, 100 min (text: 115 min), mouse no. 4 (FIG. 10)) | accumulation in tumor visualized by 2H MRI ([1]; 72 mg intraperitoneal, 20-320 min after administration, mouse no. 2 (FIGS. 5-8)) | 2H MRI signal in control mouse without tumors ([1]; 72 mg intraperitoneal, 40 minutes after administration, mouse no. 1) | valid range of the diagnostic agent doses ([1]; mouse, FIGS. 5-9) | tumor visualization by 2H MRI [2]
1 | [2H]C([2H])([2H])O[C@H]1[C@H](O)[C@@H](CO)OC(O)[C@@H]1O (stereo partly drawn) [3-O-CD3-glucose] | accumulation of 3-O-CD3-glucose in the tumor | accumulated in tumors | accumulated in the tumor in sufficient concentration to be visualized | missing an area with a strong signal of deuterium | 1-3.5 g per 1 kg of animal weight | –
2 | OCC1OC(O)C(O)C(O)C1O (stereo not drawn) [6,6-D2-glucose] | – | – | – | – | – | not possible to accurately visualize the tumor
